assay: Critical micelle formation concentration (CMC) by concentration-dependent determination of the surface tension; assay type: physicochemical; settings: aqueous solution; from concentration-dependent surface tension
Description: The CMC was determined by the concentration-dependent determination of the surface tension. The method is described by, i.a., Elworthy and Mysels; J. Colloid Interface Sci., 21, 331, 1966; Mukerjee, Mysels; The Critical Micelle Conc. Of Aqu. Surfactant Systems, 1971, US National Bureau of Standards and G. Brosowski, M. Rohr, G. Lehmann; Fette, […], Anstrichsmittel [Fats, Soaps, Paints], 75, 335, 1973.

Compared with `CN(CC(O)C(O)C(O)C(O)CO)C(=O)c1c(I)c(NC(=O)COCC(=O)N2CCN(S(=O)(=O)C(F)(F)C(F)(F)C(F)(F)C(F)(F)C(F)(F)C(F)(F)C(F)(F)C(F)(F)F)CC2)c(I)c(C(=O)N(C)CC(O)C(O)C(O)C(O)CO)c1I` (stereo not drawn) [Example 5 f, 2,4,6-Triiodo-N,N′-dimethyl-5-{2-[2-oxo-2-(4-(heptadecafluorooctane-1-sulfonyl)-piperazin-1-yl]-ethoxy]-acetylamino}-N,N′-bis-(2,3,4,5,6-pentahydroxyhexyl)-isophthalamide], `CN(CC(O)C(O)C(O)C(O)CO)C(=O)c1c(I)c(C(=O)N(C)CC(O)C(O)C(O)C(O)CO)c(I)c(N(CC(=O)O)C(=O)COCC(=O)N2CCN(S(=O)(=O)C(F)(F)C(F)(F)C(F)(F)C(F)(F)C(F)(F)C(F)(F)C(F)(F)C(F)(F)F)CC2)c1I` (stereo not drawn) [Example 6 e] is lower in “Critical Micelle Formation Concentration (CMC)” value: 0.00012 mol/L for the first, 6.9e-05 mol/L for the second.

First: O=C(O)CN(C(=O)COCC(=O)N1CCN(S(=O)(=O)C(F)(F)C(F)(F)C(F)(F)C(F)(F)C(F)(F)C(F)(F)C(F)(F)C(F)(F)F)CC1)c1c(I)c(C(=O)N(CC(O)CO)CC(O)CO)c(I)c(C(=O)N(CC(O)CO)CC(O)CO)c1I (stereo not drawn) [Example 1 e, [{3,5-Bis-[bis-(2,3-dihydroxy-propyl)-carbamoyl]-2,4,6-triiodo-phenyl}-(2-{2-[4-(heptadecafluorooctane-1-sulfonyl)piperazin-1-yl]-2-oxo-ethoxy}-acetyl)-amino]-acetic Acid]
Second: O=C(O)CN(C(=O)CCC(=O)N1CCN(S(=O)(=O)C(F)(F)C(F)(F)C(F)(F)C(F)(F)C(F)(F)C(F)(F)C(F)(F)C(F)(F)F)CC1)c1c(I)c(C(=O)N(CC(O)CO)CC(O)CO)c(I)c(C(=O)N(CC(O)CO)CC(O)CO)c1I (stereo not drawn) [Example 3 e, [{3,5-Bis-[bis-(2,3-dihydroxy-propyl)-carbamoyl]-2,4,6-triiodo-phenyl}-{4[4-(heptadecafluorooctane-1-sulfonyl)-piperazin-1-yl]-4-oxo-butyryl}-amino)-acetic Acid]
The “Critical Micelle Formation Concentration (CMC)” value of the first is higher: 6.4e-05 mol/L for the first, 5.4e-05 mol/L for the second.

First: O=C(COCC(=O)N1CCN(S(=O)(=O)C(F)(F)C(F)(F)C(F)(F)C(F)(F)C(F)(F)C(F)(F)C(F)(F)C(F)(F)F)CC1)Nc1c(I)c(C(=O)N(CC(O)CO)CC(O)CO)c(I)c(C(=O)N(CC(O)CO)CC(O)CO)c1I (stereo not drawn) [Example 2 c]
Second: O=C(CCC(=O)N1CCN(S(=O)(=O)C(F)(F)C(F)(F)C(F)(F)C(F)(F)C(F)(F)C(F)(F)C(F)(F)C(F)(F)F)CC1)Nc1c(I)c(C(=O)N(CC(O)CO)CC(O)CO)c(I)c(C(=O)N(CC(O)CO)CC(O)CO)c1I (stereo not drawn) [Example 4 c, N,N,N′,N′-Tetrakis-(2,3-dihydroxy-propyl)-5-{4-[4-(heptadecafluorooctane-1-sulfonyl)-piperazin-1-yl]-4-oxo-butyrylamino}-2,4,6-triiodo-isophthalamide]
The “Critical Micelle Formation Concentration (CMC)” value of the first is higher: 6.2e-05 mol/L for the first, 5.4e-05 mol/L for the second.

— US20030236407A1, “Perfluoroalkyl group-containing micelle-forming triiodoaromatic compounds, process for their production and their use as contrast media” (Schering AG, priority 2002, published 2003)
